Data from patent US20250215029A1 (Recludix Pharma, Inc., priority 2022, published 2025).
Read-outs that look alike come from different tables or passages of the source.

Experiments:
[1] = target: T1, Recombinant STAT6 protein (STAT6 (W123-T658)) (Homo sapiens, UniProt P42226); assay: STAT6 Fluorescence Polarization (FP) Assay; type: binding; details: 45-minute incubation
T1 construct: Recombinant STAT6 protein (STAT6 (W123-T658))
T1 sequence (P42226 123-658): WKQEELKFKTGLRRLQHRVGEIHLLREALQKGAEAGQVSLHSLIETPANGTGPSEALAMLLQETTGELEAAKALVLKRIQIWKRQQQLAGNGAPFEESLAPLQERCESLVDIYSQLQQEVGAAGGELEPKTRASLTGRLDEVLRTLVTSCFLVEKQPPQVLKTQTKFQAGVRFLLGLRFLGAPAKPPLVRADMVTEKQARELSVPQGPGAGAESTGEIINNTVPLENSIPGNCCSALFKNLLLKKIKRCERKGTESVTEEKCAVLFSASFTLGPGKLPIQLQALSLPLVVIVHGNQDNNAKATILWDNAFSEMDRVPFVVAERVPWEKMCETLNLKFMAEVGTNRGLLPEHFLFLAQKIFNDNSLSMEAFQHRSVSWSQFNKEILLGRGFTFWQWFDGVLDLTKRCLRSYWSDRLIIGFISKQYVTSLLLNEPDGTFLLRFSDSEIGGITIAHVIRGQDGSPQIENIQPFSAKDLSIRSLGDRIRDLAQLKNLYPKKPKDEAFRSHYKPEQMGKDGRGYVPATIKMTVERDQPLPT
Procedure, shortened: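 Recombinant STAT6 (W123-T658) at 250 nM mixed with 2 nM 5-FAM phosphotyrosine peptide probe in HEPES pH 7.4 buffer with DTT, 1% DMSO final, added to serially diluted compounds. FP (mP) read after 45 min at room temperature; IC50 by nonlinear regression vs log concentration.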

[2] = target: T2, Recombinant STAT3 protein (STAT3 (G127-I722)) (Homo sapiens, UniProt P40763); assay: STAT3 Fluorescence Polarization (FP) Assay; type: binding; details: probe 5-FAM-GpYLPQTV-NH2 2 nM, 45-minute incubation
T2 construct: Recombinant STAT3 protein (STAT3 (G127-I722))
T2 sequence (P40763 127-722): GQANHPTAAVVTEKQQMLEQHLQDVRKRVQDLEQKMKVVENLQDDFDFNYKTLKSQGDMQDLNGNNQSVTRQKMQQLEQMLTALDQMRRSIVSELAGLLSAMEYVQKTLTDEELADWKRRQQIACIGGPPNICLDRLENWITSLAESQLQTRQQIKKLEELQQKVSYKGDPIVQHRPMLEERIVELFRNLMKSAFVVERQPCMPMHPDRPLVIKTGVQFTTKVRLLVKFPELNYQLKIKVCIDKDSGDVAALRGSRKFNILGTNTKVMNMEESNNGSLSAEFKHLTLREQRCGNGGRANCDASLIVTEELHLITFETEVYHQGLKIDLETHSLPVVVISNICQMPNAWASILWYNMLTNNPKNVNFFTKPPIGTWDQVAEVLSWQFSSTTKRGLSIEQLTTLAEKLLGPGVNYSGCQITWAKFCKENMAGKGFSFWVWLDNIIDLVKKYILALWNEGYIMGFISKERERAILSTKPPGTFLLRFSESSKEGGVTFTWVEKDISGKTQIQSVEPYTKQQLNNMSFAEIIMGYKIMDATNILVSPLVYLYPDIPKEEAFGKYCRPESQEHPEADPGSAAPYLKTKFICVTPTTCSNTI
Procedure, shortened: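 Displacement of a 2 nM 5-FAM-labelled pY peptide (GpYLPQTV) from 25 nM recombinant STAT3 (G127-I722) was monitored by fluorescence polarization. Incubation lasted 45 min at room temperature in pH 7.4 HEPES buffer containing 1% DMSO.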

[3] = STAT6 (W123-T658) 250 nM, probe 5-FAM-Ap[…]-NH2 2 nM, read-out: STAT6 (FP assay IC50 class)
[4] = STAT3 (G127-I722) 25 nM, read-out: STAT3 (FP assay IC50 class)
[5] = STAT6 250 nM, probe 5-FAM-Ap[…]-NH2 2 nM, read-out: STAT6 (FP assay IC50)
[6] = STAT3 25 nM, read-out: STAT3 (FP assay IC50)

Row | SMILES | IC50 [1, 3] [µM] | IC50 [2, 4] [µM] | IC50 [1, 5] [µM] | IC50 [2, 6] [µM] | IC50 ([1]; STAT6 (W123-T658) 250 nM, probe 5-FAM-ApYKPFQDLI-NH2 2 nM, read-out: STAT6 (FP assay IC50 class)) [µM]
1 | O=C(N[C@H]1CCCC[C@H]2CC[C@@H](C(=O)N3CCC(c4ncncc4F)CC3)N2C1=O)c1cc2cc(C(F)P(=O)(O)O)ccc2s1 (stereo partly drawn) [Compound 588, (fluoro(2-(((3S,6S,10aS)-3-(4-(5-fluoropyrimidin-4-yl)piperidine-1-carbonyl)-5-oxodecahydropyrrolo[1,2-a]azocin-6-yl)carbamoyl)benzo[b]thiophen-5-yl)methyl)phosphonic acid] | 3 to 30 | 1 to 10 |  |  | 
2 | N#Cc1ccnc(C2CN(C(=O)[C@@H]3CC[C@@H]4CCC[C@H](NC(=O)c5cc6cc(CP(=O)(O)O)ccc6s5)C(=O)N43)C2)n1 [Compound 660, ((2-(((3S,6S,9aS)-3-(3-(4-cyanopyrimidin-2-yl)azetidine-1-carbonyl)-5-oxooctahydro-1H-pyrrolo[1,2-a]azepin-6-yl)carbamoyl)benzo [b]thiophen-5-yl)methyl) phosphonic acid] | 3 to 30 | 1 to 10 |  |  | 
3 | O=C(N[C@H]1CCCC[C@H]2CC[C@@H](C(=O)N3CCC(O)(c4cc[nH]c(=O)c4)C3)N2C1=O)c1cc2cc(C(F)(F)P(=O)(O)O)ccc2s1 (stereo partly drawn) [Compound 513, (difluoro(2-(((3S,6S,10aS)-3-(3-hydroxy-3-(2-oxo-1,2-dihydropyridin-4-yl)pyrrolidine-1-carbonyl)-5-oxodecahydropyrrolo[1,2-a]azocin-6-yl)carbamoyl)benzo[b]thiophen-5-yl)methyl)phosphonic acid] | 0.3 to 3 | 0.1 to 1 |  |  | 
4 | O=C(N[C@H]1CCC[C@H]2CC[C@@H](C(=O)N3CC(c4cncc(Cl)c4F)C3)N2C1=O)c1cc2cc(C(F)P(=O)(O)O)ccc2s1 (stereo partly drawn) [Compound 717, ((2-(((3S,6S,9aS)-3-(3-(5-chloro-4-fluoropyridin-3-yl)azetidine-1-carbonyl)-5-oxooctahydro-1H-pyrrolo[1,2-a]azepin-6-yl)carbamoyl)benzo [b]thiophen-5-yl)fluoromethyl) phosphonic acid] | 3 to 30 | < 0.1 |  |  | 
5 | O=C(N[C@H]1CCCC[C@H]2CC[C@@H](C(=O)N3CC(F)(c4ccccc4F)C3)N2C1=O)c1cc2cc(C(F)(F)P(=O)(O)O)ccc2s1 [Compound 54, (difluoro(2-(((3S,6S,10aS)-3-(3-fluoro-3-(2-fluorophenyl)azetidine-1-carbonyl)-5-oxodecahydropyrrolo [1,2-a]azocin-6-yl)carbamoyl)benzo[b]thiophen-5-yl)methyl) phosphonic acid] |  |  | 0.3 to 3 | < 0.1 | 
6 | N#C[C@H]1CN(C(=O)[C@@H]2CC[C@@H]3CCCC[C@H](NC(=O)c4ccc5ccc(C(F)(F)P(=O)(O)O)cc5c4)C(=O)N32)C[C@@H]1c1ccccc1 (mixture of isomers) [Compound 28, ((7-(((3S,6S,10aS)-3-(rel- trans)-3-cyano-4-phenylpyrrolidine-1-carbonyl)-5-oxodecahydropyrrolo [1,2-a]azocin-6-yl)carbamoyl)naphthalen-2-yl) difluoromethyl) phosphonic acid] |  |  | ≤ 0.3 | 1 to 10 | 
7 | CC(F)(c1ccc2sc(C(=O)N[C@H]3CCC[C@H]4CC[C@@H](C(=O)N5CC(c6cccnc6)C5)N4C3=O)cc2c1)P(=O)(O)O (stereo partly drawn) [Compound 221, (1-fluoro-1-(2-(((3S,6S,9aS)-5-oxo-3-(3-(pyridin-3-yl)azetidine-1-carbonyl)octahydro-1H-pyrrolo[1,2-a]azepin-6-yl)carbamoyl)benzo[b]thiophen-5-yl)ethyl)phosphonic acid] | 3 to 30 | < 0.1 |  |  | 
8 | COc1c(F)cncc1C1CN(C(=O)[C@@H]2CC[C@@H]3CCC[C@H](NC(=O)c4cc5cc(C(F)P(=O)(O)O)ccc5s4)C(=O)N32)C1 (stereo partly drawn) [Compound 625, (fluoro(2-(((3S,6S,9aS)-3-(3-(5-fluoro-4-methoxypyridin-3-yl)azetidine-1-carbonyl)-5-oxooctahydro-1H-pyrrolo[1,2-a]azepin-6-yl)carbamoyl)benzo [b]thiophen-5-yl)methyl) phosphonic acid] | 3 to 30 | 0.1 to 1 |  |  | 
9 | Cc1cc(C#N)cnc1C1CN(C(=O)[C@@H]2CC[C@@H]3CCCC[C@H](NC(=O)c4cc5cc(C(F)(F)P(=O)(O)O)ccc5s4)C(=O)N32)C1 [Compound 496, ((2-(((3S,6S,10aS)-3-(3-(5-cyano-3-methylpyridin-2-yl)azetidine-1-carbonyl)-5-oxodecahydropyrrolo[1,2-a]azocin-6-yl)carbamoyl)benzo[b]thiophen-5-yl)difluoromethyl)phosphonic acid] | 0.3 to 3 | < 0.1 |  |  | 
10 | O=C(N[C@H]1CCCC[C@H]2CC[C@@H](C(=O)NCc3cc[nH]c(=O)c3)N2C1=O)c1cc2cc(C(F)(F)P(=O)(O)O)ccc2s1 [Compound 49, (difluoro(2-(((3S,6S,10aS)-5-oxo-3-(((2-oxo-1,2-dihydropyridin-4-yl)methyl)carbamoyl)deca-hydropyrrolo[1,2-a]azocin-6-yl)carbamoyl)benzo[b]thiophen-5-yl)methyl) phosphonic acid] |  |  | 3 to 30 | 0.1 to 1 | 
11 | Cn1c(C2CN(C(=O)[C@@H]3CC[C@@H]4CCCC[C@H](NC(=O)c5cc6cc(C(F)(F)P(=O)(O)O)ccc6s5)C(=O)N43)C2)nc2ccccc21 [Compound 38, (difluoro(2-(((3S,6S,10aS)-3-(3-(1-methyl-1H-benzo[d]imidazol-2-yl)azetidine-1-carbonyl)-5-oxodecahydropyrrolo [1,2-a]azocin-6-yl)carbamoyl)benzo[b]thiophen-5-yl)methyl) phosphonic acid] |  |  | 0.3 to 3 | < 0.1 | 

The remaining lines, values ahead:

Row | IC50 [1, 3] [µM] | IC50 [2, 4] [µM] | IC50 [1, 5] [µM] | IC50 [2, 6] [µM] | IC50 ([1]; STAT6 (W123-T658) 250 nM, probe 5-FAM-ApYKPFQDLI-NH2 2 nM, read-out: STAT6 (FP assay IC50 class)) [µM] | SMILES
12 | 0.3 to 3 | 1 to 10 |  |  |  | Cn1cc(C2CN(C(=O)[C@@H]3CC[C@@H]4CCC[C@H](NC(=O)c5cc6cc(C(F)(F)P(=O)(O)O)ccc6s5)C(=O)N43)CCO2)cn1 (stereo partly drawn) [Compound 1123]
13 | 3 to 30 | < 0.1 |  |  |  | CC(C)c1ccncc1C1CN(C(=O)[C@@H]2CC[C@@H]3CCC[C@H](NC(=O)c4cc5cc(C(F)P(=O)(O)O)ccc5s4)C(=O)N32)C1 (stereo partly drawn) [Compound 939, (fluoro(2-(((3S,6S,9aS)-3-(3-(4-isopropylpyridin-3-yl)azetidine-1-carbonyl)-5-oxooctahydro-1H-pyrrolo[1,2-a]azepin-6-yl)carbamoyl)benzo [b]thiophen-5-yl)methyl) phosphonic acid]
14 | 3 to 30 | < 0.1 |  |  |  | N#Cc1cnc(C2CN(C(=O)[C@@H]3CC[C@@H]4CCCC[C@H](NC(=O)c5cc6cc(C(F)(F)P(=O)(O)O)ccc6s5)C(=O)N43)C2)nc1 [Compound 806, ((2-(((3S,6S,10aS)-3-(3-(5-cyanopyrimidin-2-yl)azetidine-1-carbonyl)-5-oxodecahydropyrrolo [1,2-a]azocin-6-yl)carbamoyl)benzo [b]thiophen-5-yl)difluoromethyl) phosphonic acid]
15 | 3 to 30 | < 0.1 |  |  |  | O=C(N[C@H]1CCCC[C@H]2CC[C@@H](C(=O)N3CC(NCC(F)F)(c4ccccn4)C3)N2C1=O)c1cc2cc(C(F)P(=O)(O)O)ccc2s1 (stereo partly drawn) [Compound 761, ((2-(((3S,6S,10aS)-3-(3-((2,2-difluoroethyl)amino)-3-(pyridin-2-yl)azetidine-1-carbonyl)-5-oxodecahydropyrrolo[1,2-a]azocin-6-yl)carbamoyl)benzo [b]thiophen-5-yl)fluoromethyl) phosphonic acid]
16 | ≤ 0.3 | 1 to 10 |  |  |  | N#C[C@@H]1[C@@H](c2cccnc2)CN(C(=O)[C@@H]2CC[C@@H]3CCC[C@H](NC(=O)c4cc5cc([C@H](F)P(=O)(O)O)ccc5s4)C(=O)N32)C12CC2 (single isomer, unassigned) [Compound 833]
17 |  | 1 to 10 |  |  | ≤ 0.3 | O=C(N[C@H]1CCCC[C@H]2CC[C@@H](C(=O)N3C[C@@H](c4ccccc4)CC34CC4)N2C1=O)c1cc2cc(C(F)(F)P(=O)(O)O)ccc2s1 (single isomer, unassigned) [Compound 890]
18 | 3 to 30 | 0.1 to 1 |  |  |  | Cc1nc2cc(CNC(=O)[C@@H]3CC[C@@H]4CCC[C@H](NC(=O)c5cc6cc(C(F)(F)P(=O)(O)O)ccc6s5)C(=O)N43)ccc2[nH]1 [Compound 1116, (difluoro(2-(((3S,6S,9aS)-3-(((2-methyl-1H-benzo[d]imidazol-5-yl)methyl)carbamoyl)-5-oxooctahydro-1H-pyrrolo[1,2-a]azepin-6-yl)carbamoyl)benzo[b]thiophen-5-yl)methyl)phosphonic acid]
